Results published in patent US12037333B2, “Pyridopyrazine and pyridotriazine inhibitors of influenza virus replication” (priority 2018, dated 2024).

tested on: Influenza type A (strain A/PR/8/34, ATCC VR-95); test: Influenza antiviral assay: inhibition of virus-induced cytopathic effects (CPE) in MDCK cells, XTT dye reduction; type: cell-based; settings: Influenza A virus, H1N1 / PR/8, MDCK, 96 h, strain A/PR/8/34, MDCK cells, CPE inhibition at 4 days

SMILES	EC50 [nM]
CN1CN(C23c4ccccc4CC2Cc2ccccc23)n2ccc(=O)c(O)c2C1=O (stereo not drawn) [Compound A1, 1-(9a, 10-dihydroindeno[1,2-a]inden-4b(9H)-yl)-5-hydroxy-3-methyl-2,3-dihydro-1H-pyrido[2,1-f][1,2,4]triazine-4,6-dione]	< 125
O=C1c2c(O)c(=O)ccn2N(C23c4ccccc4CC2Cc2ccccc23)CN1CC1CC1 (stereo not drawn) [Compound A2, 3-Cyclopropylmethyl-1-(9a,10-dihydro-9H-indeno[1,2-a]inden-4b-yl)-5-hydroxy-2,3-dihydro-1H-pyrido[2,1-f][1,2,4]triazine-4,6-dione]	125 to 250
CN1CN(C23c4ccc(F)cc4CC2Cc2cc(F)ccc23)n2ccc(=O)c(O)c2C1=O (stereo not drawn) [Compound A3, 1-(2,7-Difluoro-9a,10-dihydro-9H-indeno[1,2-a]inden-4b-yl)-5-hydroxy-3-methyl-2,3-dihydro-1H-pyrido[2,1-f][1,2,4]triazine-4,6-dione]	125 to 250
O=C1c2c(O)c(=O)ccn2N(C23c4ccccc4CC2Cc2ccccc23)CN1Cc1ccccc1 (stereo not drawn) [Compound A4, 3-Benzyl-1-(9a,10-dihydro-9H-indeno[1,2-a]inden-4b-yl)-5-hydroxy-2,3-dihydro-1H-pyrido[2,1-f][1,2,4]triazine-4,6-dione]	> 500
CN1CN(C23c4ccccc4CC2Cc2c3ccc(F)c2F)n2ccc(=O)c(O)c2C1=O (stereo not drawn) [Compound A6, 1-(1,2-Difluoro-9a,10-dihydro-9H-indeno[1,2-a]inden-4b-yl)-5-hydroxy-3-methyl-2,3-dihydro-1H-pyrido[2,1-f][1,2,4]triazine-4,6-dione]	< 125
O=C1c2c(O)c(=O)ccn2N(C23c4ccccc4CC2Cc2ccccc23)CN1CCOc1ccccc1 (stereo not drawn) [Compound A7, 1-(9a,10-Dihydro-9H-indeno[1,2-a]inden-4b-yl)-5-hydroxy-3-(2-phenoxy-ethyl)-2,3-dihydro-1H-pyrido[2,1-t][1,2,4]triazine-4,6-dione]	> 500
CN1CN(C23c4cc(F)c(F)cc4CC2Cc2cc(F)c(F)cc23)n2ccc(=O)c(O)c2C1=O (stereo not drawn) [Compound A8, 5-Hydroxy-3-methyl-1-(2,3,6,7-tetrafluoro-9a,10-dihydro-9H-indeno[1,2-a]inden-4b-yl)-2,3-dihydro-1H-pyrido[2,1-f][1,2,4]triazine-4,6-dione]	375 to 500
O=C1c2c(O)c(=O)ccn2N(C23c4ccccc4CC2Cc2c3ccc(F)c2F)CN1CC1CC1 (stereo not drawn) [Compound A9, 3-Cyclopropylmethyl-1-(1,2-difluoro-9a,10-dihydro-9H-indeno[1,2-a]inden-4b-yl)-5-hydroxy-2,3-dihydro-1H-pyrido[2,1-f][1,2,4]triazine-4,6-dione]	> 500
CCN1CN(C23c4ccccc4CC2Cc2cc(F)c(F)cc23)n2ccc(=O)c(O)c2C1=O (stereo not drawn) [Compound A10, 1-(2,3-Difluoro-9a,10-dihydro-9H-indeno[1,2-a]inden-4b-yl)-3-ethyl-5-hydroxy-2,3-dihydro-1H-pyrido[2,1-f][1,2,4]triazine-4,6-dione]	250 to 375
O=C1c2c(O)c(=O)ccn2N(C23c4ccccc4CC2Cc2c3ccc(F)c2F)CN1Cc1ccccc1 (stereo not drawn) [Compound A11, 3-Benzyl-1-(1,2-difluoro-9a,10-dihydro-9H-indeno[1,2-a]inden-4b-yl)-5-hydroxy-2,3-dihydro-1H-pyrido[2,1-t][1,2,4]triazine-4,6-dione]	> 500
CN1CN(C23c4cccc(F)c4CC2Cc2c(F)cccc23)n2ccc(=O)c(O)c2C1=O (stereo not drawn) [Compound A12, 1-(1,8-Difluoro-9a,10-dihydro-9H-indeno[1,2-a]inden-4b-yl)-5-hydroxy-3-methyl-2,3-dihydro-1H-pyrido[2,1-f][1,2,4]triazine-4,6-dione]	< 125
O=C1c2c(O)c(=O)ccn2N(C23c4ccccc4CC2Cc2cc(F)c(F)cc23)CN1CC1CC1 (stereo not drawn) [Compound A13, 3-Cyclopropylmethyl-1-(2,3-difluoro-9a,10-dihydro-9H-indeno[1,2-a]inden-4b-yl)-5-hydroxy-2,3-dihydro-1H-pyrido[2,1-f][1,2,4]triazine-4,6-dione]	< 125
CCN1CN(C23c4ccccc4CC2Cc2c3ccc(F)c2F)n2ccc(=O)c(O)c2C1=O (stereo not drawn) [Compound A14, 1-(1,2-Difluoro-9a,10-dihydro-9H-indeno[1,2-a]inden-4b-yl)-3-ethyl-5-hydroxy-2,3-dihydro-1H-pyrido[2,1-f][1,2,4]triazine-4,6-dione]	< 125
O=C1c2c(O)c(=O)ccn2N(C23c4ccccc4CC2Cc2c3ccc(F)c2F)CN1CC1CCOCC1 (stereo not drawn) [Compound A15, 1-(1,2-Difluoro-9a,10-dihydro-9H-indeno[1,2-a]inden-4b-yl)-5-hydroxy-3-(tetrahydro-pyran-4-ylmethyl)-2,3-dihydro-1H-pyrido[2,1-f][1,2,4]triazine-4,6-dione]	< 125
O=C1c2c(O)c(=O)ccn2N(C23c4ccccc4CC2Cc2cc(F)c(F)cc23)CN1CC1CCOCC1 (stereo not drawn) [Compound A16, 1-(2,3-Difluoro-9a,10-dihydro-9H-indeno[1,2-a]inden-4b-yl)-5-hydroxy-3-(tetrahydro-pyran-4-ylmethyl)-2,3-dihydro-1H-pyrido[2,1-f][1,2,4]triazine-4,6-dione]	< 125
O=C1c2c(O)c(=O)ccn2N(C23c4ccccc4CC2Cc2c3ccc(F)c2F)CN1Cc1ccc(F)cc1 (stereo not drawn) [Compound A17, 1-(1,2-Difluoro-9a,10-dihydro-9H-indeno[1,2-a]inden-4b-yl)-3-(4-fluoro-benzyl)-5-hydroxy-2,3-dihydro-1H-pyrido[2,1-f][1,2,4]triazine-4,6-dione]	125 to 250
CN1CN(C23c4ccccc4CC2Cc2cc(F)c(F)cc23)n2ccc(=O)c(O)c2C1=O (stereo not drawn) [Compound A19, 1-(2,3-difluoro-9a,10-dihydroindeno[1,2-a]inden-4b(9H)-yl)-5-hydroxy-3-methyl-2,3-dihydro-1H-pyrido[2,1-f][1,2,4]triazine-4,6-dione]	< 125
CN1CN(C23c4cc(F)ccc4CC2Cc2ccc(F)cc23)n2ccc(=O)c(O)c2C1=O (stereo not drawn) [Compound A20, 1-(3,6-difluoro-9a,10-dihydroindeno[1,2-a]inden-4b(9H)-yl)-5-hydroxy-3-methyl-2,3-dihydro-1H-pyrido[2,1-f][1,2,4]triazine-4,6-dione]	< 125
O=C1c2c(O)c(=O)ccn2N(C23c4ccccc4CC2Cc2cc(F)c(F)cc23)CN1Cc1ccccc1 (stereo not drawn) [Compound A21, 3-benzyl-1-(2,3-difluoro-9a,10-dihydroindeno[1,2-a]inden-4b(9H)-yl)-5-hydroxy-2,3-dihydro-1H-pyrido[2,1-f][1,2,4]triazine-4,6-dione]	250 to 375
O=C1c2c(O)c(=O)ccn2N(C23c4ccccc4CC2Cc2cc(F)c(F)cc23)CN1CCc1ccccc1 (stereo not drawn) [Compound A22, 1-(2,3-difluoro-9a,10-dihydroindeno[1,2-a]inden-4b(9H)-yl)-5-hydroxy-3-phenethyl-2,3-dihydro-1H-pyrido[2,1-f][1,2,4]triazine-4,6-dione]	250 to 375
O=C1c2c(O)c(=O)ccn2N(C23c4ccccc4CC2Cc2cc(F)c(F)cc23)CN1Cc1ccc(F)cc1 (stereo not drawn) [Compound A23, 1-(2,3-Difluoro-9a,10-dihydro-9H-indeno[1,2-a]inden-4b-yl)-3-(4-fluoro-benzyl)-5-hydroxy-2,3-dihydro-1H-pyrido[2,1-f][1,2,4]triazine-4,6-dione]	> 500
